Laboratory results: patent EP2033962A1, “Tetracyclic indolopyridines as EG5 inhibitors” (4SC AG, priority 2007, dated 2009)

Test system: RKO p27 uninduced (proliferating)
Assay: Alamar Blue cell viability assay, anti-proliferative / cytotoxic activity on proliferating cells
Format: cell-based
Conditions: Homo sapiens, RKOp27; RKO colon cancer cells, absence of the inducer Ponasterone A, 72 hours incubation; read-out: -log EC50 [mol/l] RKO p27 uninduced (proliferating) (converted)
Method: The anti-proliferative / cytotoxic activity of the compounds described herein can be tested on subclones of RKO human colon adenocarcinoma cells (Schmidt et al., Oncogene 19, 2423-2429; 2000) using the Alamar Blue cell viability assay (described in O'Brien et al. Eur J Biochem 267, 5421-5426, 2000). The compounds are dissolved as 10 mM solutions in DMSO and subsequently diluted in semi-logarithmic steps. DMSO dilutions are further diluted 1:100 v:v into Dulbecco's modified Eagle's medium (DMEM) containing 10% fetal calf serum to a final concentration twice as much as the final concentration in the test. RKO subclones are seeded into 96 well flat bottom plates at a density of 4000 cells per well in a volume of 50 µl per well. 24 hours after seeding the 50 µl each of the compound dilutions in DMEM medium are added into each well of the 96 well plate. Each compound dilution is tested as triplicates. Wells containing untreated control cells are filled with 50 µl DMEM medium containing 1% DMSO. The cells are then incubated with the substances for 72 hours at 37°C in a humidified atmosphere containing 5% carbon dioxide. To determine the viability of the cells, 10 µl of an Alamar Blue solution (Biosource) are added and the fluorescence is measured at an extinction of 544 nm and an emission of 590 nm. For the calculation of the cell viability the emission value from untreated cells is set as 100% viability and the emission rates of treated cells are set in relation to the values of untreated cells. Viabilities are expressed as % values. The Graphpad Prism program is used for the calculation of EC50 values for anti-proliferative / cytotoxic activity out of the obtained dose-response curves.
To determine the cell cycle specific mode of action, subclones of RKO colon adenocarcinoma cells (RKOp21 or RKOp27 as described by Schmidt et al. in Oncogene 19, 2423-2429; 2000) are seeded into 96 well flat bottom plates at a density of 16000 cells per well in a volume of 50 µl per well in DMEM growth medium with 10% FCS containing 10 µM Ponasterone A. 24 hours after seeding the 50 µl each of the compound dilutions in DMEM medium are added into each well of the 96-well plate. Each compound dilution is tested as triplicates. Wells containing untreated control cells are filled with 50 µl DMEM medium containing 1% DMSO. The cells are then incubated with the substances for 72 hours at 37°C in a humidified atmosphere containing 5% carbon dioxide. To determine the viability of the cells, 10 µl of an Alamar Blue solution (Biosource) are added and the fluorescence is measured at an extinction of 544 nm and an emission of 590 nm. For the calculation of the cell viability the emission value from untreated cells is set as 100% viability and the emission rates of treated cells are set in relation to the values of untreated cells. Viabilities are expressed as % values. The Graphpad Prism program (GraphPad Software, Inc) is used for the calculation of EC50 values out of the obtained dose-response curves. Viability is compared of proliferating cells grown in the absence of the inducer Ponasterone A, versus viability of cells arrested by the expression of ectopic p27Kip1 induced by Ponasterone A.

**Q.** For `COc1ccc2[nH]c3c(c2c1)C[C@@]1(C)C(=O)N(CCCN2CCCC2)CC(=O)N1[C@@H]3c1cccc(O)c1` (racemic) [Example 28, (6RS,12aSR)-6-(3-Hydroxy-phenyl)-10-methoxy-12a-methyl-2-(3-pyrrolidin-1-yl-n-propyl)-2,3,6,7,12,12a-hexahydro-pyrazino[1',2':1,6]pyrido[3,4-b]indole-1,4-dione], which EC50 is on record?
**A.** 0.1 to 1 µM

**Q.** Which EC50 does the source give for `CCN(CC)CCCN1CC(=O)N2[C@H](c3cccc(O)c3)c3[nH]c4ccc(OC)cc4c3C[C@@]2(C)C1=O` (racemic) [Example 16, (6RS,12aSR)-2-(3-Diethylamino-n-propyl)-6-(3-hydroxy-phenyl)-10-methoxy-12a-methyl-2,3,6,7,12,12a-hexahydro-pyrazino[1',2':1,6]pyrido[3,4-b]indole-1,4-dione] here?
**A.** ≤ 0.1 µM

**Q.** Which EC50 does the source give for `COc1ccc2[nH]c3c(c2c1)C[C@@]1(C)C(=O)N(CCCN(C)C)CC(=O)N1[C@@H]3c1cccc(O)c1` (racemic) [Example 12, (6RS,12aSR)-2-(3-Dimethylamino-n-propyl)-6-(3-hydroxy-phenyl)-10-methoxy-12a-methyl-2,3,6,7,12,12a-hexahydro-pyrazino[1',2':1,6]pyrido[3,4-b]indole-1,4-dione] here?
**A.** ≤ 0.1 µM

**Q.** For `COc1ccc2[nH]c3c(c2c1)C[C@@]1(C)C(=O)N(CCN2CCCC2)CC(=O)N1[C@@H]3c1cccc(O)c1` (racemic) [Example 9, (6RS,12aSR)-6-(3-Hydroxy-phenyl)-10-methoxy-12a-methyl-2-(2-pyrrolidin-1-yl-ethyl)-2,3,6,7,12,12a-hexahydro-pyrazino[1',2':1,6]pyrido[3,4-b]indole-1,4-dione], which EC50 is on record?
**A.** ≤ 0.1 µM

**Q.** For `COc1ccc2[nH]c3c(c2c1)C[C@@]1(C)C(=O)N(CCCN2CCCCC2)CC(=O)N1[C@@H]3c1cccc(O)c1` (racemic) [Example 27, (6RS,12aSR)-6-(3-Hydroxy-phenyl)-10-methoxy-12a-methyl-2-(3-piperidin-1-yl-n-propyl)-2,3,6,7,12,12a-hexahydro-pyrazino[1',2':1,6]pyrido[3,4-b]indole-1,4-dione], which EC50 is on record?
**A.** 0.1 to 1 µM

**Q.** With `CCN(CC)CCN1CC(=O)N2[C@H](c3cccc(O)c3)c3[nH]c4ccc(OC)cc4c3C[C@@]2(C)C1=O` (racemic) [Example 15, (6RS,12aSR)-2-(2-Diethylamino-ethyl)-6-(3-hydroxy-phenyl)-10-methoxy-12a-methyl-2,3,6,7,12,12a-hexahydro-pyrazino[1',2':1,6]pyrido[3,4-b]indole-1,4-dione] as the compound, how does the EC50 read?
**A.** 0.1 to 1 µM

**Q.** For `O=C1[C@@H]2Cc3c([nH]c4ccccc34)[C@@H](c3cccc(O)c3)N2C(=O)CN1CCN1CCCC1` (racemic) [Example 6, (6RS,12aSR)-6-(3-Hydroxy-phenyl)-2-(2-pyrrolidin-1-yl-ethyl)-2,3,6,7,12,12a-hexahydro-pyrazino[1',2':1,6]pyrido[3,4-b]indole-1,4-dione], which EC50 is on record?
**A.** 0.1 to 1 µM

**Q.** How did the EC50 turn out when `COc1ccc2[nH]c3c(c2c1)C[C@@]1(C)C(=O)N(CCN(C(C)C)C(C)C)CC(=O)N1[C@@H]3c1cccc(O)c1` (racemic) [Example 19, (6RS,12aSR)-2-(2-Diisopropylamino-ethyl)-6-(3-hydroxy-phenyl)-10-methoxy-12a-methyl-2,3,6,7,12,12a-hexahydro-pyrazino[1',2':1,6]pyrido[3,4-b]indole-1,4-dione] was run?
**A.** ≤ 0.1 µM

**Q.** Which EC50 does the source give for `COc1ccc2[nH]c3c(c2c1)C[C@@]1(C)C(=O)N(CCNC(C)C)CC(=O)N1[C@@H]3c1cccc(O)c1` (racemic) [Example 25, (6RS,12aSR)-6-(3-Hydroxy-phenyl)-2-(2-isopropylamino-ethyl)-10-methoxy-12a-methyl-2,3,6,7,12,12a-hexahydro-pyrazino[1',2':1,6]pyrido[3,4-b]indole-1,4-dione] here?
**A.** ≤ 0.1 µM

**Q.** For `COc1ccc2[nH]c3c(c2c1)C[C@@]1(C)C(=O)N(CCCN2CCOCC2)CC(=O)N1[C@@H]3c1cccc(O)c1` (racemic) [Example 14, (6RS,12aSR)-6-(3-Hydroxy-phenyl)-10-methoxy-12a-methyl-2-(3-morpholin-4-yl-n-propyl)-2,3,6,7,12,12a-hexahydro-pyrazino[1',2':1,6]pyrido[3,4-b]indole-1,4-dione], which EC50 is on record?
**A.** 0.1 to 1 µM

**Q.** With `COc1ccc2[nH]c3c(c2c1)C[C@@]1(C)C(=O)N(CCN2CCCCC2)CC(=O)N1[C@@H]3c1cccc(O)c1` (racemic) [Example 11, (6RS,12aSR)-6-(3-Hydroxy-phenyl)-10-methoxy-12a-methyl-2-(2-piperidin-1-yl-ethyl)-2,3,6,7,12,12a-hexahydro-pyrazino[1',2':1,6]pyrido[3,4-b]indole-1,4-dione] as the compound, how does the EC50 read?
**A.** ≤ 0.1 µM

**Q.** Which EC50 does the source give for `O=C1[C@@H]2Cc3c([nH]c4ccccc34)[C@@H](c3cccc(O)c3)N2C(=O)CN1CCN1CCCCC1` (racemic) [Example 7, (6RS,12aSR)-6-(3-Hydroxy-phenyl)-2-(2-piperidin-1-yl-ethyl)-2,3,6,7,12,12a-hexahydro-pyrazino[1',2':1,6]pyrido[3,4-b]indole-1,4-dione] here?
**A.** 0.1 to 1 µM

**Q.** `COc1ccc2[nH]c3c(c2c1)C[C@@]1(C)C(=O)N(CCN(C)C)CC(=O)N1[C@@H]3c1cccc(O)c1` (racemic) [Example 8, (6RS,12aSR)-2-(2-Dimethylamino-ethyl)-6-(3-hydroxy-phenyl)-10-methoxy-12a-methyl-2,3,6,7,12,12a-hexahydro-pyrazino[1',2':1,6]pyrido[3,4-b]indole-1,4-dione] was tested. Which EC50 did it give?
**A.** ≤ 0.1 µM

**Q.** For `COc1ccc2[nH]c3c(c2c1)C[C@@]1(C)C(=O)N(C)CC(=O)N1[C@@H]3c1cccc(O)c1` (racemic) [Example 10, (6RS,12aSR)-6-(3-Hydroxy-phenyl)-10-methoxy-2,12a-dimethyl-2,3,6,7,12,12a-hexahydro-pyrazino[1',2':1,6]pyrido[3,4-b]indole-1,4-dione], which EC50 is on record?
**A.** 0.1 to 1 µM

**Q.** Which EC50 does the source give for `COc1ccc2[nH]c3c(c2c1)C[C@@]1(C)C(=O)N(CCN2CCOCC2)CC(=O)N1[C@@H]3c1cccc(O)c1` (racemic) [Example 13, (6RS,12aSR)-6-(3-Hydroxy-phenyl)-10-methoxy-12a-methyl-2-(2-morpholin-4-yl-ethyl)-2,3,6,7,12,12a-hexahydro-pyrazino[1',2':1,6]pyrido[3,4-b]indole-1,4-dione] here?
**A.** 0.1 to 1 µM
